According to PMC6268357, “Synthesis and Biological Evaluation of New Ligustrazine Derivatives as Anti-Tumor Agents” (Molecules, 2012):
In brackets after ≈: the same amount, converted by molar mass. Entries after “also recorded” stand apart in the source; their conditions may differ. Where two headings read alike, the source gives them in different places.

Key:
[1] = tested on: HCT-8 human cancer cell line; experiment: MTT anti-proliferation assay, HCT-8; format: cell-based; conditions: for IC50: Homo sapiens, read-out: IC50 HCT-8
Procedure: (§1) The cytotoxicities of these compounds were tested on five cancer cell lines by the standard MTT assay. […] The growing tumor cells at a density 10^4 cells/mL were exposed to various concentrations of the tested drugs and incubated in a 96-well microtiter plate for 96 h (37 °C, 5% CO2). After MTT solution (20 μL, 5 mg/mL) was added to each well, the plate was incubated for a further 4 h. Then the media was removed. Formazan crystals were dissolved with DMSO (150 μL). After mixing well, the absorbance was quantified at 570 nm with a BIORAD 550 spectrophotometer. Wells containing no drugs were used as blanks. […] Tumor cell growth inhibitory rate was calculated in the following equation (1): [drawing 3] (1)

[2] = tested on: A2780 human cancer cell line; experiment: MTT anti-proliferation assay, A2780; format: cell-based; conditions: for IC50: Homo sapiens, read-out: IC50 A2780
Procedure: as §1

[3] = tested on: Bel-7402 human cancer cell line; experiment: MTT anti-proliferation assay, Bel-7402; format: cell-based; conditions: for IC50: Homo sapiens, read-out: IC50 Bel 7402
Procedure: as §1

[4] = tested on: A-549 human cancer cell line; experiment: MTT anti-proliferation assay, A549; format: cell-based; conditions: for IC50: Homo sapiens, read-out: IC50 A549
Procedure: as §1

[5] = tested on: chick chorioallantoic membrane (CAM); experiment: Chick chorioallantoic membrane (CAM) angiogenesis assay; format: in vivo, White Leghorn chicken; conditions: for Number of microvessels on CAM, treatment (mean ± s): n = 6, implanted day 7, read day 11, microvessels 1 to 100 μm in diameter; for Anti-angiogenesis effect on CAM (in words): doses of 10 μg/egg and 40 μg/egg
Procedure: Fertilized White Leghorn chicken eggs, provided by the Chinese Academy of Agricultural Sciences, were placed in an incubator as soon as embryogenesis started and were kept under constant humidity of 65% at 37 °C. On day 7, a square window was opened on the shell and physiological saline (0.1 mL) was injected in to detach the shell membrane. Then gelatin sponges carrying the TMP stimulator derivatives at 10 μg/egg and 40 μg/egg were implanted, respectively. The control group was treated with physiological saline. The windows were sealed with medical adhesive tape and the incubation went on till the experiment day. The above steps were performed under sterile conditions. On the 11th day, the tapes were removed and the entire CAM was detached after tissue fixation with methanol/acetone (1:1, v/v). Then we used computer-assisted image tracking to obtain absolute values for the number of microvessels which were 1 to 100 μm in diameter. Data were analyzed using the t-test option of the of Statistics Analysis System, the values were expressed as mean ± s of 6 observations and P < 0.05 was considered significant.

[6] = tested on: BGC-823 human cancer cell line; experiment: MTT anti-proliferation assay, BGC-823; format: cell-based; conditions: for IC50: Homo sapiens, read-out: IC50 BGC-823
Procedure: as §1

Kunming mice = experiment: Acute toxicity by oral administration in mice; format: in vivo; conditions: oral (gavage) 3 g/kg in bean oil, observed two weeks
Procedure: (§2) Kunming mice (Beijing Vital River Laboratory Animal Technology Company Limited, China) of both sexes, weighing 18–22 g, were divided into […] matched in weight and size. The mice were placed in cages and kept under standard environmental conditions with a standard rodent diet and water ad libitum under a 12 h light-dark cycle. They were deprived of food for 24 h but allowed free access to tap water throughout the experiments. This research was carried out in accordance with the “Regulation for the Administration of Affairs Concerning Experimental Animals” (State Council of China, 1988).
(§3) The maximum suspended dose (75 mg/mL) of 5 was prepared in bean oil solution, then one group of 20 mice of both sexes were administered the maximum tolerated dose (0.4 mL/10 g) by oral administration. The other 20 mice, the control group, were gave bean oil (0.4 mL/10 g) via gavage.The general behavior of the mice was observed continuously for 1 h after the treatment and then intermittently for 4 h, and thereafter over a period of 24 h. The mice were further observed for up to 14 days following treatment for any signs of toxicity and deaths, and the latency of death. Behavioral, toxic effects and mortality response were recorded.

[7] = Acute toxicity by oral administration in mice; format: in vivo; conditions: both sexes, Kunming, mouse, in vivo, 3 g/kg, oral administration
Procedure: as §2, §3

[8] = MTT, 96 h exposure, maximal tested concentration 10.0 ig/mL
[9] = HCT-8, MTT, 96 h exposure, maximal tested concentration 10.0 ig/mL
[10] = A2780, MTT, 96 h exposure, maximal tested concentration 10.0 ig/mL
[11] = Bel-7402, MTT, 96 h exposure, maximal tested concentration 10.0 ig/mL
[12] = A549, MTT, 96 h exposure, maximal tested concentration 10.0 ig/mL
[13] = BGC-823, MTT, 96 h exposure, maximal tested concentration 10.0 ig/mL

IC50 [1, 9] [µg/mL] | IC50 [2, 10] [µg/mL] | IC50 [3, 11] [µg/mL] | IC50 [4, 12] [µg/mL] | IC50 [6, 13] [µg/mL] | Compound | Number of microvessels on CAM, treatment (mean ± s) ([5]; dose 10 μg/egg) | Number of microvessels on CAM, treatment (mean ± s) ([5]; dose 40 μg/egg) | also measured
9.27 (≈ 15.7 µM) | > 10 | 7.61 (≈ 12.9 µM) | > 10 | > 10 | Cc1nc(C)c(COC(=O)C23CCC(C)(C)CC2C2=CCC4C5(C)CCC(O)C(C)(C)C5CCC4(C)[C@]2(C)CC3)nc1C (stereo partly drawn) [Compound 7, 3β-Hydroxyolea-12-en-28-oic acid-3,5,6-trimethylpyrazin-2-methyl ester] | 12.0 ± 2.90 | 9.5 ± 4.55 | –
> 10 | > 10 | > 10 | > 10 | > 10 | Cc1nc(C)c(COC(=O)[C@@]2(C)CCC3(C)CC[C@]4(C)C(=CC(=O)C5C6(C)CCC(O)C(C)(C)C6CCC54C)C3C2)nc1C (stereo partly drawn) [Compound 10, (3β,18α,20β)-3-Hydroxy-11-oxoolean-12-en-29-oicacid-3,5,6-trimethylpyrazin-2-methyl ester] | 9.5 ± 1.76 | 9.8 ± 2.14 | –
> 10 | > 10 | 9.4 (≈ 33.3 µM) | 7.83 (≈ 27.7 µM) | > 10 | Cc1nc(C)c(COC(=O)/C=C/c2ccccc2)nc1C [Compound 11, 3-Phenyl-2-propenoic acid-3,5,6-trimethylpyrazin-2-methyl ester] | 10.3 ± 2.73 | 7.0 ± 3.03 | –
> 10 | > 10 | > 10 | > 10 | > 10 | C[C@H](CCC(=O)O)[C@H]1CC[C@H]2[C@@H]3CC[C@@H]4C[C@H](O)CC[C@]4(C)[C@H]3C[C@H](O)[C@]12C [DA, deoxycholic acid] | – | – | –
> 10 | > 10 | > 10 | > 10 | > 10 | CC1(C)CC[C@]2(C(=O)O)CC[C@]3(C)C(=CC[C@@H]4[C@@]5(C)CC[C@H](O)C(C)(C)[C@@H]5CC[C@]43C)[C@@H]2C1 [OA, oleanolic acid] | – | – | –
> 10 | > 10 | > 10 | > 10 | > 10 | Cc1nc(C)c(C)nc1C [TMP, ligustrazine] | – | – | –

The remaining lines, values behind:

Compound | IC50 [1, 9] [µg/mL] | IC50 [2, 10] [µg/mL] | IC50 [3, 11] [µg/mL] | IC50 [4, 12] [µg/mL] | IC50 [6, 13] [µg/mL] | Number of microvessels on CAM, treatment (mean ± s) ([5]; dose 10 μg/egg) | Number of microvessels on CAM, treatment (mean ± s) ([5]; dose 40 μg/egg) | also measured
1,7-bis(4-(3,5,6-Trimethylpyrazin-2-yl)-3-methoxyphenyl)-1,6-heptadiene-3,5-dione [Compound 4] | – | – | – | – | – | 3.8 ± 2.79 | 1.4 ± 1.22 | IC50 HCT-8 [1, 8]: 7.106 µg/mL; IC50 A2780 [2, 8]: 5.540 µg/mL; IC50 Bel 7402 [3, 8]: 6.391 µg/mL; IC50 A549 [4, 8]: 5.890 µg/mL; Anti-angiogenesis effect on CAM (in words) [5]: dramatically block the growth of new vessels; IC50 BGC-823 [6, 8]: 5.472 µg/mL
C[C@H](CCC(=O)O)[C@H]1CC[C@H]2[C@@H]3[C@H](O)C[C@@H]4C[C@H](O)CC[C@]4(C)[C@H]3C[C@H](O)[C@]12C [CA, cholic acid] | – | – | – | – | – | – | – | IC50 ([1]; HCT-8, 96 h): > 10 µg/mL; IC50 ([2]; A2780, 96 h): > 10 µg/mL; IC50 ([3]; Bel-7402, 96 h): > 10 µg/mL; IC50 ([4]; A549, 96 h): > 10 µg/mL; IC50 ([6]; BGC-823, 96 h): > 10 µg/mL
O=C(O)/C=C/c1ccccc1 [CIA, cinnamic acid] | > 10 | > 10 | > 10 | > 10 | > 10 | – | – | –
COc1cc(/C=C/C(=O)CC(=O)/C=C/c2ccc(O)c(OC)c2)ccc1O [CU, curcumin] | 6.28 (≈ 17 µM) | 6.52 (≈ 17.7 µM) | 6.5 (≈ 17.6 µM) | 6.52 (≈ 17.7 µM) | 6.81 (≈ 18.5 µM) | – | – | –
Cc1nc(C)c(COC(=O)CC[C@@H](C)C2CCC3C4CCC5C[C@H](O)CCC5(C)C4C[C@H](O)C32C)nc1C (stereo partly drawn) [Compound 5, 3 α,12α-Dihydroxy-5β-dholanic acid-3,5,6-trimethylpyrazin-2-methyl ester] | 7.43 (≈ 14.1 µM) | 6.62 (≈ 12.6 µM) | 8.01 (≈ 15.2 µM) | 6.69 (≈ 12.7 µM) | 6.66 (≈ 12.6 µM) | 4.8 ± 3.71 | 7.5 ± 3.40 | Deaths or signs of toxicity (Kunming mice): no deaths or signs of toxicity observed; also recorded: no toxicity; LD50 at 14 days [7]: > 3000 mg/kg; MTD at 14 days ([7]; read-out: Maximum tolerated dose): 3000 mg/kg; Anti-angiogenesis effect on CAM (in words) [5]: dramatically block the growth of new vessels
Cc1nc(C)c(COC(=O)CC[C@@H](C)C2CCC3C4C(C[C@H](O)C32C)C2(C)CC[C@@H](O)CC2C[C@H]4O)nc1C (stereo partly drawn) [Compound 6, 3α,7α,12α-Trihydroxy-5β-cholanic acid-3,5,6-trimethylpyrazin-2-methyl ester] | > 10 | > 10 | > 10 | > 10 | > 10 | 6.2 ± 2.40 | 5.7 ± 2.07 | –
C=C(CCC(C(=O)OCc1nc(C)c(C)nc1C)C1[C@H](O)C[C@@]2(C)C3=C(CCC12C)C1(C)CCC(OC(C)=O)C(C)(C)C1CC3)C(C)C (stereo partly drawn) [Compound 8, 3β-Acetoxy-16α-hydroxy-lanosta-8,24(31)-diene-21-oic acid-3,5,6-trimethylpyrazin-2-methyl ester] | > 10 | > 10 | > 10 | > 10 | > 10 | 9.7 ± 3.98 | 10.8 ± 5.12 | –
C=C(CCC(C(=O)OCc1nc(C)c(C)nc1C)C1[C@H](O)C[C@@]2(C)C3=CCC4C(C)(CCC(OC(C)=O)C4(C)C)C3=CCC12C)C(C)C (stereo partly drawn) [Compound 9, 3β-Acetoxy-16α-hydroxy-lanosta-7,9(11),24(31)-trien-21-oic acid-3,5,6-trimethylpyrazin-2-methyl ester] | > 10 | > 10 | > 10 | 8.77 (≈ 13.3 µM) | > 10 | 7.7 ± 2.16 | 5.7 ± 1.21 | –
C=C(CCC(C(=O)O)[C@H]1[C@H](O)C[C@@]2(C)C3=CC[C@H]4C(C)(C)[C@@H](OC(C)=O)CC[C@]4(C)C3=CC[C@]12C)C(C)C (stereo partly shown) [DPA, dehydropachymic acid] | – | – | – | – | – | – | – | IC50 HCT-8 [1, 8]: — (IC50 > 10.0 ig/mL); IC50 A2780 [2, 8]: — (IC50 > 10.0 ig/mL); IC50 Bel 7402 [3, 8]: — ^a (IC50 > 10.0 ig/mL); IC50 A549 [4, 8]: — (IC50 > 10.0 ig/mL); IC50 BGC-823 [6, 8]: — (IC50 > 10.0 ig/mL)
CC1(C)[C@@H](O)CC[C@]2(C)[C@H]3C(=O)C=C4[C@@H]5C[C@@](C)(C(=O)O)CC[C@]5(C)CC[C@@]4(C)[C@]3(C)CC[C@@H]12 [GA, glycyrrhetinic acid] | > 10 | > 10 | > 10 | > 10 | > 10 | – | – | –
C=C(CC[C@@H](C(=O)O)[C@H]1[C@H](O)C[C@@]2(C)C3=C(CC[C@]12C)[C@@]1(C)CC[C@H](OC(C)=O)C(C)(C)[C@@H]1CC3)C(C)C [PA, pachymic acid] | > 10 | > 10 | > 10 | > 10 | > 10 | – | – | –
